In patent publication US11447486B2, “2-amino-benzimidazole derivatives and their use as 5-lipoxygenase and/or prostaglandin E synthase inhibitors” (INSTITUT PASTEUR KOREA, priority 2014, dated 2022):

Legend:
[1] = tested on: Rat basophilic leukemia (RBL) cells; test: LTB4 secretion assay in RBL (rat basophilic leukemia cells); format: cell-based; conditions: Rattus norvegicus, RBL
Description: Rat basophilic leukemia (RBL) cells (ATCC, Cat #CRL-2256) were maintained in EMEM (ATCC, Cat #30-2003) supplemented with 15% FBS. The day before RBL assay, cells were seeded at a concentration of 2×10^4 cells per well in 96-well plates. The media was replaced with 100 ul of EMEM supplemented with 0.5% FBS and compounds in dose response(5 nM to 100 uM) were added. After 15 min of pre-incubation at 37° C., arachidonic acid and calcium ionophore (A23187) were added to give a final concentration of 2.5 uM and 5 uM, respectively. After a further 10 min incubation at 37° C., culture supernatant was transferred and quantification of LTB4 was done with a Leukotriene B4 EIA kit (Cayman, Cat #520111) as instructed.

human 5-LOX = target: T1, human 5-LOX (Homo sapiens, UniProt P09917); test: 5-LOX enzyme activity, fluorescence method (5-HPETE, H2DCFDA); format: biochemical; conditions: read-out: 5-LO (IC50)
T1 construct: purchased Cayman 60402; host or cells: insect cells (lysate)
T1 sequence (P09917 1-674): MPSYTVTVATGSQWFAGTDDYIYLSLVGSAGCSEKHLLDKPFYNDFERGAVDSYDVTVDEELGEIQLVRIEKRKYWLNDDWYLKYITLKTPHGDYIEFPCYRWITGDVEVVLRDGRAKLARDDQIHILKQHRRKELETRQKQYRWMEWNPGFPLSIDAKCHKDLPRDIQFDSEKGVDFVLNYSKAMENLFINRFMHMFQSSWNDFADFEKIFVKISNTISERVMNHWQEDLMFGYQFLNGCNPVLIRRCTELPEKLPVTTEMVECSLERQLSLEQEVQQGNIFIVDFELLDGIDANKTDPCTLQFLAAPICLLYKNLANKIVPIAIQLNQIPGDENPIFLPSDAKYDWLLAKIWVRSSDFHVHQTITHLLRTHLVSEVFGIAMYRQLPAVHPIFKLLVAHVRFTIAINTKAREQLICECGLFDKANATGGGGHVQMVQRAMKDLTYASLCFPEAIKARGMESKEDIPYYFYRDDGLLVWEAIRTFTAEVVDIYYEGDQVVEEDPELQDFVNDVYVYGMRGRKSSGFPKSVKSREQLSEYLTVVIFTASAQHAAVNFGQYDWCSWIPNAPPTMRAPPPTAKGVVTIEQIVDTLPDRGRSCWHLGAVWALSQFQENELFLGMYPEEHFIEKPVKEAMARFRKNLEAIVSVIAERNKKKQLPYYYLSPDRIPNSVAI
Description: The activity of compounds against 5-LOX were determined by measuring LTB4 (leukotriene B4) levels and/or by a fluorescence method. Both approaches are outlined in more detail below;
The compound, in a dose response manner(0.5 nM to 10 uM), and enzyme mixture was pre-incubated for 5 minutes, and the enzymatic reaction was initiated by addition of ATP and arachidonic acid to a final concentration of 100 uM and 3 uM, respectively. […] All steps were carried out at room temperature.

Row | SMILES | EC50 [1] [µM] | IC50 (human 5-LOX) [µM]
1 | CCC(Nc1nc2ccc(N)cc2n1C)c1ccc(Oc2ncc(Cl)cn2)cc1 (stereo not drawn) [Compound 452] | < 10 | < 1
2 | CC(C)(C(=O)c1ccc(CNc2nc3ccc(N)cc3[nH]2)cc1)C(F)(F)F [Compound 205] | < 10 | < 1
3 | Cn1c(NCc2ccc(Oc3ncc(Cl)cn3)cc2)nc2ccc(NC(=N)N)cc21 [Compound 441] | > 20 | > 10
4 | COCCn1c(NCc2ccc(Oc3ccc(Cl)cn3)cc2)nc2ccc(N)cc21 [Compound 263] | 10 to 20 | < 1
5 | Nc1ccc2nc(NCCO)n(Cc3ccc(Oc4ccc(Cl)cn4)cc3)c2c1 [Compound 250] | < 10 | < 1
6 | Cn1c(NCc2ccc(Oc3ccccn3)cc2)nc2ccc(NC3COC3)cc21 [Compound 347] | < 10 | < 1
7 | Cc1ccc(Oc2ccc(CNc3nc4ccc(NC5COC5)cc4n3C)cc2)nn1 [Compound 312] | > 20 | < 1
8 | CN(C)c1nc2ccc(NCc3ccc(N(Cc4ncco4)c4ccc(F)cc4)cc3)cc2[nH]1 [Compound 213] | < 10 | < 1
9 | Nc1ccc2nc(NCc3ccc4c(c3)NCCC4)[nH]c2c1 [Compound 162] | < 10 | < 1
10 | Nc1ccc2nc(N)n(Cc3ccc(Oc4ccc(Cl)cc4)nc3)c2c1 [Compound 240] | < 10 | < 1
11 | CN(C)c1nc2cc(NCc3coc(Nc4ccc(Cl)cc4)n3)ccc2[nH]1 [Compound 214] | < 10 | < 1
12 | Cn1c(NCc2ccc(Oc3ncc(N)cn3)cc2)nc2ccc(N)cc21 [Compound 376] | > 20 | < 1
13 | CC(Cc1ccc(Cl)cc1Cl)Nc1nc2cc(N)ccc2n1Cc1ccccc1 (stereo not drawn) [Compound 144] | 10 to 20 | < 1
14 | Cn1c(NCc2ccc(Oc3ncc(Cl)cn3)cc2)nc2ccc(NCc3ncccn3)cc21 [Compound 365] | < 10 | < 1
15 | N#CCCNc1nc2ccc(NC3COC3)cc2n1Cc1ccc(Oc2ccc(Cl)cc2)cc1 [Compound 262] | < 10 | > 10
16 | CC(C)(C(O)c1ccc(CNc2nc3ccc(N)cc3[nH]2)cc1)C(F)(F)F (stereo not drawn) [Compound 198] | 10 to 20 | < 1
17 | Cn1c(NCc2ccc(OCc3ncco3)cc2)nc2ccc(N)cc21 [Compound 342] | < 10 | < 1
18 | CC(C)n1c(NCc2ccc(Oc3ccc(Cl)cn3)cc2)nc2ccc(N)cc21 [Compound 258] | < 10 | < 1
19 | Cn1c(NCc2ccc(Oc3ccnc4cc(Cl)ccc34)cc2)nc2ccc(NC3COC3)cc21 [Compound 384] | < 10 | < 1
20 | Cn1c(NCc2ccc(Oc3ccc4ccc(Cl)cc4n3)cc2)nc2ccc(N)cc21 [Compound 419] | < 10 | < 1
21 | Nc1ccc2nc(N)n(Cc3ccc(Oc4ccc(Cl)cn4)c(Cl)c3)c2c1 [Compound 255] | < 10 | < 1
22 | Cn1c(NCc2ccc(Oc3ccc(Cl)cn3)nc2)nc2ccc(N)cc21 [Compound 308] | > 20 | < 1
23 | Cn1c(NCc2ccc(Oc3ncc(OC(F)(F)F)cn3)cc2)nc2ccc(N)cc21 [Compound 410] | < 10 | < 1
24 | CC(C)(CO)Nc1ccc2[nH]c(NCc3ccc(Cl)cc3F)nc2c1 [Compound 31] | > 20 | < 1
25 | COCCN(Cc1ccc(Oc2ccc(Cl)cn2)cc1)c1nc2ccc(N)cc2n1C [Compound 338] | > 20 | < 1

More lines, now with the values ahead:

Row | EC50 [1] [µM] | IC50 (human 5-LOX) [µM] | SMILES
26 | > 20 | < 1 | CN(C)c1nc2cc(NCc3ccc(CC(N)=O)cc3)ccc2[nH]1 [Compound 232]
27 | < 10 | < 1 | CC(Nc1nc2ccc(N)cc2n1C)c1ccc(Oc2ccc(Cl)cn2)cc1 (stereo not drawn) [Compound 260]
28 | < 10 | < 1 | Cn1c(NCCOc2ccc(Cl)c(Cl)c2)nc2ccc(N)cc21 [Compound 60]
29 | < 10 | 1 to 10 | CC(C)(C)Nc1nc2cc(N)ccc2n1CC(=O)Nc1ccc(OC(F)(F)F)cc1 [Compound 69]
30 | > 20 | < 1 | CCOC(c1ccc(CNc2nc3ccc(N)cc3[nH]2)cc1)c1ccccn1 (stereo not drawn) [Compound 188]
31 | < 10 | < 1 | Nc1ccc2nc(N)n(Cc3ccc(Oc4nc5ccccc5o4)cc3)c2c1 [Compound 246]
32 | 10 to 20 | < 1 | COc1cc2[nH]c(NCc3ccc(Oc4ccc(Cl)cc4)cc3)nc2cc1N [Compound 146]
33 | < 10 | > 10 | CCn1c(NCc2ccc(Oc3ccc(Cl)cn3)cc2)nc2ccc(Nc3cc(C(F)(F)F)n(C)n3)cc21 [Compound 511]
34 | < 10 | < 1 | COc1cc(Oc2ccc(Cl)cn2)ccc1CNc1nc2ccc(N)cc2n1C [Compound 327]
35 | > 20 | < 1 | Cn1c(NCc2ccc(Oc3ccc(Cl)cc3)cc2)nc2ccc(N)cc21 [Compound 167]
36 | < 10 | < 1 | Cn1c(NCc2ccc(Oc3ncc(Cl)c4ccccc34)cc2)nc2ccc(NC3COC3)cc21 [Compound 400]
37 | < 10 | < 1 | CN(C)c1nc2cc(NCc3ccc(-c4ncco4)cc3)ccc2[nH]1 [Compound 220]
38 | < 10 | < 1 | CCC(Nc1nc2ccc(NC3COC3)cc2n1C)c1ccc(Oc2ncc(Cl)cn2)cc1 (stereo not drawn) [Compound 453]
39 | < 10 | < 1 | Cc1ccc(Oc2ccc(CNc3nc4ccc(NC5COC5)cc4n3C)cc2)nc1 [Compound 353]
40 | < 10 | < 1 | Cc1cc(Nc2ccc3nc(NCc4ccc(Oc5ncc(-c6ccc(Cl)cc6)cn5)cc4)n(C)c3c2)n[nH]1 [Compound 467]
41 | > 20 | < 1 | CNC(=O)c1cnc(Oc2ccc(CNc3nc4ccc(N)cc4n3C)cc2)nc1 [Compound 462]
42 | > 20 | < 1 | CN(C)c1nc2cc(NCc3ccc(-c4nc(C(=O)O)co4)cc3)ccc2[nH]1 [Compound 228]
43 | 10 to 20 | < 1 | Cc1cc(Oc2ccc(Cl)cn2)cc(C)c1CNc1nc2ccc(N)cc2n1C [Compound 334]
44 | < 10 | < 1 | Cc1cc(Nc2ccc3nc(NC4(c5ccc(Oc6ncc(Cl)cn6)cc5)CC4)n(C)c3c2)n[nH]1 [Compound 478]
45 | 10 to 20 | < 1 | Cn1c(NCc2ccc(Oc3ncc(Cl)cc3Cl)cc2)nc2ccc(N)cc21 [Compound 321]
46 | < 10 | < 1 | CCOC(=O)CNc1nc2ccc(N)cc2n1Cc1ccc(Oc2ccc(Cl)cc2)cc1 [Compound 207]
47 | < 10 | < 1 | Cn1c(NCc2ccc(Oc3ccc(Cl)cn3)cc2)nc2ccc(NC(C)(C)C(=O)O)cc21 [Compound 326]
48 | > 20 | < 1 | Cn1c(NCc2ccc(Oc3ccc(Cl)cc3)cc2)nc2ccc(NCC#N)cc21 [Compound 171]
